Marks after values point to notes of the source that are not given here.
System: sheath blight caused by Rhizoctonia solani
Experiment: Rice sheath blight field experiment (Lujiang county of Anhui province)
Assay type: in vivo
Description: Rice the most important crop in China, and the sheath blight caused by Rhizoctonia solani is one of the most serious diseases in rice.

OCC1=C[C@@H](N[C@H]2C[C@H](CO)[C@@H](O[C@H]3O[C@@H](CO)[C@H](O)[C@@H](O)[C@@H]3O)[C@H](O)[C@H]2O)[C@H](O)[C@@H](O)[C@@H]1O [Jinggangmycin (20%), Jinggangmycin]
Control efficacy: 69.81%
Disease severity, Means ± S.D: 26.51 ± 0.91^b %
Disease severity, I (replicate I): 27.43%
Disease severity, II (replicate II): 26.52%
Disease severity, III (replicate III): 25.60%
